Laboratory results from ChEMBL document CHEMBL3407472, “Multi-parameter optimization of aza-follow-ups to BI 207524, a thumb pocket 1 HCV NS5B polymerase inhibitor. Part 2: Impact of lipophilicity on promiscuity and in vivo toxicity” (Bioorg Med Chem Lett, 2015).

How the values were obtained:
[1] = Lipophilicity, log D of the compound at pH 7.4; assay type: physicochemical; conditions: buffer
Hepatitis C virus [2] = assay: Antiviral activity against Hepatitis C virus genotype 1b infected in human Huh cells assessed as inhibition of viral replication by RT-PCR-based replicon assay; assay type: functional, cell-based, Hepacivirus hominis
Hepatitis C virus [3] = assay: Antiviral activity against Hepatitis C virus genotype 1a infected in human Huh cells assessed as inhibition of viral replication by RT-PCR-based replicon assay; assay type: functional, cell-based, Hepacivirus hominis; conditions: subtype 1a

Row | Compound | logD [1] | EC50 (Hepatitis C virus [2]) [nM] | EC50 (Hepatitis C virus [3]) [nM]
1 | CCOc1nc(NC(=O)C2(NC(=O)c3ccc4c(C5CCCC5)c(-c5ncc(Cl)cn5)n(C)c4c3)CCC2)cnc1/C=C/C(=O)O | 3.5 | – | –
2 | COc1nc(NC(=O)C(C)(C)NC(=O)c2ccc3c(C4CCCC4)c(-c4ccccn4)n(C)c3c2)cnc1/C=C/C(=O)O | – | 50 | –
3 | COc1nc(NC(=O)C(C)(C)NC(=O)c2ccc3c(c2)c(C)c(-c2ccc(F)cn2)n3C2CCCCC2)cnc1/C=C/C(=O)O | – | 27 | –
4 | COc1nc(NC(=O)C(C)(C)NC(=O)c2ccc3c(C4CCCC4)c(-c4cnccn4)n(C)c3c2)cnc1/C=C/C(=O)O | – | 55 | –
5 | CCOc1nc(NC(=O)C2(NC(=O)c3ccc4c(C5CCCC5)c(-c5ncc(Br)cn5)n(C)c4c3)CCC2)cnc1/C=C/C(=O)O | 4.2 | 30 | –
6 | CCOc1nc(NC(=O)C2(NC(=O)c3ccc4c(C5CCCC5)c(-c5cncnc5)n(C)c4c3)CCCC2)cnc1/C=C/C(=O)O | 2.8 | 18 | –
7 | COc1nc(NC(=O)C(C)(C)NC(=O)c2ccc3c(C4CCCC4)c(-c4ncc(Cl)cn4)n(C)c3c2)ccc1/C=C/C(=O)O | 3.3 | 47 | –
8 | COc1nc(NC(=O)C2(NC(=O)c3ccc4c(C5CCCC5)c(-c5ncc(Cl)cn5)n(C)c4c3)CCC2)cnc1/C=C/C(=O)O | – | 32 | –
9 | COc1nc(NC(=O)C2(NC(=O)c3ccc4c(C5CCCC5)c(-c5cnccn5)n(C)c4c3)CCC2)cnc1/C=C/C(=O)O | – | 49 | –
10 | COc1nc(NC(=O)C2(NC(=O)c3ccc4c(C5CCCC5)c(-c5cncnc5)n(C)c4c3)CCC2)cnc1/C=C/C(=O)O | – | 185 | –
11 | COc1nc(NC(=O)C(C)(C)NC(=O)c2ccc3c(C4CCCC4)c(-c4cncnc4)n(C)c3c2)cnc1/C=C/C(=O)O | – | 330 | –
12 | COc1nc(NC(=O)C(C)(C)NC(=O)c2ccc3c(C4CCCC4)c(-c4ncc(Br)cn4)n(C)c3c2)cnc1/C=C/C(=O)O | 2.6 | 23 | –
13 | COc1nc(NC(=O)C(C)(C)NC(=O)c2ccc3c(C4CCCC4)c(-c4ccccn4)n(C)c3c2)ccc1/C=C/C(=O)O | – | 21 | –
14 | COc1nc(NC(=O)C2(NC(=O)c3ccc4c(C5CCCC5)c(-c5ccc(Cl)cn5)n(C)c4c3)CCC2)cnc1/C=C/C(=O)O | – | 56 | –
15 | COc1nc(NC(=O)C2(NC(=O)c3ccc4c(C5CCCC5)c(-c5ccccn5)n(C)c4c3)CCCC2)cnc1/C=C/C(=O)O | – | 31 | –
16 | CCOc1nc(NC(=O)C(C)(C)NC(=O)c2ccc3c(C4CCCC4)c(-c4cncnc4)n(C)c3c2)cnc1/C=C/C(=O)O | 2.2 | 82 | –
17 | CCOc1nc(NC(=O)C2(NC(=O)c3ccc4c(C5CCCC5)c(-c5cnccn5)n(C)c4c3)CCC2)cnc1/C=C/C(=O)O | 2.9 | 22 | –
18 | CCOc1nc(NC(=O)C2(NC(=O)c3ccc4c(C5CCCC5)c(-c5ccc(Cl)cn5)n(C)c4c3)CCC2)cnc1/C=C/C(=O)O | – | 53 | –
19 | CCOc1nc(NC(=O)C2(NC(=O)c3ccc4c(C5CCCC5)c(-c5ccc(F)cn5)n(C)c4c3)CCC2)cnc1/C=C/C(=O)O | – | 20 | 89

Continued, values first:

Row | logD [1] | EC50 (Hepatitis C virus [2]) [nM] | EC50 (Hepatitis C virus [3]) [nM] | Compound
20 | 3.9 | 12 | – | COc1nc(NC(=O)C(C)(C)NC(=O)c2ccc3c(C4CCCC4)c(-c4ccc(Cl)cn4)n(C)c3c2)ccc1/C=C/C(=O)O
21 | 4.2 | 6 | – | CCOc1nc(NC(=O)C2(NC(=O)c3ccc4c(c3)c(C)c(-c3ccc(F)cn3)n4C3CCCCC3)CCCC2)cnc1/C=C/C(=O)O
22 | 2.4 | 16 | – | COc1nc(NC(=O)C(C)(C)NC(=O)c2ccc3c(C4CCCC4)c(-c4cnccn4)n(C)c3c2)ccc1/C=C/C(=O)O
23 | > 4.2 | 9 | – | CCOc1nc(NC(=O)C2(NC(=O)c3ccc4c(C5CCCC5)c(-c5ncc(Br)cn5)n(C)c4c3)CCCC2)cnc1/C=C/C(=O)O
24 | 4.6 | 13 | – | COc1nc(NC(=O)C2(NC(=O)c3ccc4c(C5CCCC5)c(-c5ccc(Cl)cn5)n(C)c4c3)CCC2)ccc1/C=C/C(=O)O
25 | – | 12 | 24 | CCOc1nc(NC(=O)C2(NC(=O)c3ccc4c(C5CCCC5)c(-c5ncc(Br)cn5)n(C)c4c3)CCC2)ccc1/C=C/C(=O)O
26 | 3.9 | 11 | – | CCOc1nc(NC(=O)C2(NC(=O)c3ccc4c(C5CCCC5)c(-c5ccc(F)cn5)n(C)c4c3)CCCC2)cnc1/C=C/C(=O)O
27 | 3.9 | 9 | – | COc1nc(NC(=O)C2(NC(=O)c3ccc4c(C5CCCC5)c(-c5ncc(Br)cn5)n(C)c4c3)CCC2)ccc1/C=C/C(=O)O
28 | – | 4 | – | CCOc1nc(NC(=O)C2(NC(=O)c3ccc4c(C5CCCC5)c(-c5ccccn5)n(C)c4c3)CCCC2)ccc1/C=C/C(=O)O
29 | > 4.4 | 13 | – | CCOc1nc(NC(=O)C2(NC(=O)c3ccc4c(C5CCCC5)c(-c5ccc(Cl)cn5)n(C)c4c3)CCCC2)cnc1/C=C/C(=O)O
30 | – | 3 | – | COc1nc(NC(=O)C(C)(C)NC(=O)c2ccc3c(c2)c(C)c(-c2ccc(F)cn2)n3C2CCCCC2)ccc1/C=C/C(=O)O
31 | 2.9 | 7 | – | CCOc1nc(NC(=O)C(C)(C)NC(=O)c2ccc3c(C4CCCC4)c(-c4cnccn4)n(C)c3c2)ccc1/C=C/C(=O)O
